System: TNBS-induced colitis
Assay: TNBS-induced colitis in mice, oral dosing once a day Days 1-7
Type: in vivo, female SJL mice
Parameters: Disease Activity Index, Mean / Fecal Consistency, Mean: scale not given here
Settings: for Colon Length, Mean / Colon Weight, Mean / Colon Weight/Length ratio, Mean: at euthanasia; for Histopathological severity score, Mean: colon H&E, score 0-4; for overall conclusion as compared to TNBS-vehicle (in words): oral
Method: Healthy young female SJL mice were used for the study. At the commencement of the study, the mice were between 8-9 weeks of age, weighing 20-22 g. All the mice were obtained from The Jackson Laboratory, Bar Harbor, Me. 04609 USA.
After seven days of acclimatization, mice were grouped according to their body weight. There was one group of ten mice and five groups of fifteen mice each. Five groups of fifteen mice each were challenged intra-rectally with 100 μl of 2.0% TNBS in 50% EtOH and other group of ten mice were challenged intra-rectally with 100 μl of 50% EtOH and serve as No-TNBS control. The experimental groups were as follows:
The mice were challenged intra-rectally with 100 μl of 2% TNBS in 50% ethanol under light anesthesia with ketamine/xylazine. The test compounds were administrated an hour prior to intra-rectal administration of TNBS as per scheduled daily dosing.
Vehicle and no-TNBS control groups received 0.5% CMC orally from Day 1 to Day 7.
Body Weight: The body weights were measured daily for 1-7 days using a laboratory balance.
Disease Activity Index: The clinical assessment of the mice was performed beginning Day 2 (a day after the intra-rectal administration of TNBS). The clinical assessment includes body weight, stool consistency and the presence of blood in the stools and scored according to Table 2.
Colon Length and Weight: the mice were euthanized using CO2 asphyxiation and colon from the colocecal junction to the anus was removed, washed and cleaned of all fecal matter using PBS. The colon length and weight were measured and then preserved in 10% NBF for histopathology.
Histopathology: Formalin fixed colon samples were submitted to affiliated histopathology laboratory for histopathological analysis subjected to hematoxylin and eosin (H & E) staining using standard techniques. Each colon was trimmed from both ends and mid. All three sections were stained and evaluated.
A board certified veterinarian pathologist assessed the presence of colitis and severity score according to the following criteria: • 0=no sign of inflammation • 1=very low level of inflammation • 2=low level of leukocytic infiltration, low level of inflammation • 3=high level of leukocytic infiltration, high vascular density, inflammation and thickening of colon wall • 4=transmural infiltration, loss of goblet cells, high vascular density, crypt abscesses, thickening of colon wall and ulceration.
The data is presented as the mean±standard error (SEM) obtained from Microsoft Excel or GraphPad Prism version 5.00 for Windows (GraphPad Software, San Diego Calif. USA). The data was analyzed using two-way ANOVA using Bonferroni post-test. Differences between groups were considered significant at p<0.05.

For O=C(Nc1ccc2[nH]c(=O)oc2c1)C(=O)N1CCC(Cc2ccc(F)cc2)CC1 [Radiprodil, 2-[4-[(4-fluorophenyl)methyl]piperidin-1-yl]-2-oxo-N-(2-oxo-3H-1,3-benzoxazol-6-yl)acetamide], the “Disease Activity Index vs TNBS-vehicle group (in words)” value (30 mg/kg) was “No significant differences”, the “histopathology, cell morphological changes / severity (in words)” value (30 mg/kg PO QD (Table 1)) was “reduced severity” and the “body weight change as compared to the TNBS-vehicle group (in words)” value (from here on “body weight change”) (30 mg/kg po) was “significant improvement beginning Day 4, with the exception of Day 3”. The “Percent Change in Body Weight, Mean” value (Day 1, 30 mg/kg PO QD) was 0.00%, the “Percent Survivability” value (Day 1, 30 mg/kg PO QD) was 100.000% and the “Disease Activity Index, Mean” value (Day 2, 30 mg/kg PO QD) was 1.84. For the same compound, the “Fecal Consistency, Mean” value (Day 2, 30 mg/kg PO QD) was 1.20, the “Occult Positivity, Mean” value (Day 2, 30 mg/kg PO QD) was 2.00 and the “Percent Change in Body Weight, Mean” value (Day 2, 30 mg/kg PO QD) was −10.51%. The “Percent Survivability” value (Day 2, 30 mg/kg PO QD) was 100.000%, the “Disease Activity Index, Mean” value (Day 3, 30 mg/kg PO QD) was 2.24 and the “Fecal Consistency, Mean” value (Day 3, 30 mg/kg PO QD) was 1.33. The “Occult Positivity, Mean” value (Day 3, 30 mg/kg PO QD) was 2.53, the “Percent Change in Body Weight, Mean” value (Day 3, 30 mg/kg PO QD) was −13.08% and the “Percent Survivability” value (Day 3, 30 mg/kg PO QD) was 100.000%. For the same compound, the “Disease Activity Index, Mean” value (Day 4, 30 mg/kg PO QD) was 2.13, the “Fecal Consistency, Mean” value (Day 4, 30 mg/kg PO QD) was 1.23 and the “Occult Positivity, Mean” value (Day 4, 30 mg/kg PO QD) was 2.46. The “Percent Change in Body Weight, Mean” value (Day 4, 30 mg/kg PO QD) was −10.35%, the “Percent Survivability” value (Day 4, 30 mg/kg PO QD) was 86.670% and the “Disease Activity Index, Mean” value (Day 5, 30 mg/kg PO QD) was 1.78. For the same compound, the “Fecal Consistency, Mean” value (Day 5, 30 mg/kg PO QD) was 1.00, the “Occult Positivity, Mean” value (Day 5, 30 mg/kg PO QD) was 2.33 and the “Percent Change in Body Weight, Mean” value (Day 5, 30 mg/kg PO QD) was −8.29%. For the same compound, the “Percent Survivability” value (Day 5, 30 mg/kg PO QD) was 80.000%, the “Disease Activity Index, Mean” value (Day 6, 30 mg/kg PO QD) was 1.67 and the “Fecal Consistency, Mean” value (Day 6, 30 mg/kg PO QD) was 1.00. For the same compound, the “Occult Positivity, Mean” value (Day 6, 30 mg/kg PO QD) was 2.17, the “Percent Change in Body Weight, Mean” value (Day 6, 30 mg/kg PO QD) was −7.58% and the “Percent Survivability” value (Day 6, 30 mg/kg PO QD) was 80.000%. The “Disease Activity Index, Mean” value (Day 7, 30 mg/kg PO QD) was 1.50, the “Fecal Consistency, Mean” value (Day 7, 30 mg/kg PO QD) was 1.00 and the “Occult Positivity, Mean” value (Day 7, 30 mg/kg PO QD) was 1.83. The “Percent Change in Body Weight, Mean” value (Day 7, 30 mg/kg PO QD) was −6.95%, the “Percent Survivability” value (Day 7, 30 mg/kg PO QD) was 80.000% and the “Colon Length, Mean” value (30 mg/kg PO QD Days 1-7) was 8.42 cm. For the same compound, the “Colon Weight, Mean” value (30 mg/kg PO QD Days 1-7) was 0.3095 g, the “Colon Weight/Length ratio, Mean” value (30 mg/kg PO QD Days 1-7) was 37.7622 mg/cm and the “Histopathological severity score, Mean” value (30 mg/kg PO QD Days 1-7) was 1.61. For the same compound, the “overall conclusion as compared to TNBS-vehicle (in words)” value (30 mg/kg) was “showed improvement in colitis as well as in the loss of body weight, DAI, colon length, weight and weight/length ratio”.
For C[C@@H]([C@H](O)c1ccc(O)cc1)N1CCC(Cc2ccccc2)CC1 (racemic) [Ifenprodil, 4-[2-(4-benzylpiperidin-1-ium-1-yl)-1-hydroxypropyl] phenol; 2,3,4-trihydroxy-4-oxobutanoate], the “Disease Activity Index vs TNBS-vehicle group (in words)” value (30 mg/kg) was “No significant differences”, the “histopathology, cell morphological changes / severity (in words)” value (30 mg/kg PO QD (Table 1)) was “statistically significantly reducing cell morphological changes associated with disease” and the “body weight change” value (30 mg/kg po) was “significant improvement beginning on Day 4”. The “Percent Change in Body Weight, Mean” value (Day 1, 30 mg/kg PO QD) was 0.00%, the “Percent Survivability” value (Day 1, 30 mg/kg PO QD) was 100.000% and the “Disease Activity Index, Mean” value (Day 2, 30 mg/kg PO QD) was 1.62. For the same compound, the “Fecal Consistency, Mean” value (Day 2, 30 mg/kg PO QD) was 1.00, the “Occult Positivity, Mean” value (Day 2, 30 mg/kg PO QD) was 1.86 and the “Percent Change in Body Weight, Mean” value (Day 2, 30 mg/kg PO QD) was −9.38%. The “Percent Survivability” value (Day 2, 30 mg/kg PO QD) was 93.000%, the “Disease Activity Index, Mean” value (Day 3, 30 mg/kg PO QD) was 2.04 and the “Fecal Consistency, Mean” value (Day 3, 30 mg/kg PO QD) was 1.71. The “Occult Positivity, Mean” value (Day 3, 30 mg/kg PO QD) was 2.14, the “Percent Change in Body Weight, Mean” value (Day 3, 30 mg/kg PO QD) was −11.31% and the “Percent Survivability” value (Day 3, 30 mg/kg PO QD) was 93.000%. The “Disease Activity Index, Mean” value (Day 4, 30 mg/kg PO QD) was 2.14, the “Fecal Consistency, Mean” value (Day 4, 30 mg/kg PO QD) was 2.00 and the “Occult Positivity, Mean” value (Day 4, 30 mg/kg PO QD) was 2.62. For the same compound, the “Percent Change in Body Weight, Mean” value (Day 4, 30 mg/kg PO QD) was −9.44%, the “Percent Survivability” value (Day 4, 30 mg/kg PO QD) was 86.600% and the “Disease Activity Index, Mean” value (Day 5, 30 mg/kg PO QD) was 1.82. For the same compound, the “Fecal Consistency, Mean” value (Day 5, 30 mg/kg PO QD) was 1.67, the “Occult Positivity, Mean” value (Day 5, 30 mg/kg PO QD) was 2.33 and the “Percent Change in Body Weight, Mean” value (Day 5, 30 mg/kg PO QD) was −7.64%. The “Percent Survivability” value (Day 5, 30 mg/kg PO QD) was 80.000%, the “Disease Activity Index, Mean” value (Day 6, 30 mg/kg PO QD) was 1.56 and the “Fecal Consistency, Mean” value (Day 6, 30 mg/kg PO QD) was 1.33. For the same compound, the “Occult Positivity, Mean” value (Day 6, 30 mg/kg PO QD) was 2.00, the “Percent Change in Body Weight, Mean” value (Day 6, 30 mg/kg PO QD) was −6.68% and the “Percent Survivability” value (Day 6, 30 mg/kg PO QD) was 80.000%. For the same compound, the “Disease Activity Index, Mean” value (Day 7, 30 mg/kg PO QD) was 1.41, the “Fecal Consistency, Mean” value (Day 7, 30 mg/kg PO QD) was 1.17 and the “Occult Positivity, Mean” value (Day 7, 30 mg/kg PO QD) was 1.83. The “Percent Change in Body Weight, Mean” value (Day 7, 30 mg/kg PO QD) was −6.23%, the “Percent Survivability” value (Day 7, 30 mg/kg PO QD) was 80.000% and the “Colon Length, Mean” value (30 mg/kg PO QD Days 1-7) was 8.93 cm. For the same compound, the “Colon Weight, Mean” value (30 mg/kg PO QD Days 1-7) was 0.2145 g, the “Colon Weight/Length ratio, Mean” value (30 mg/kg PO QD Days 1-7) was 24.5065 mg/cm and the “Histopathological severity score, Mean” value (30 mg/kg PO QD Days 1-7) was 1.06. For the same compound, the “overall conclusion as compared to TNBS-vehicle (in words)” value (30 mg/kg) was “showed improvement in colitis as well as in the loss of body weight, DAI, colon length, weight and weight/length ratio”.
With Nc1ccc(O)c(C(=O)O)c1 [5-ASA, 5-Amino-2-hydroxybenzoic acid] the “histopathology, cell morphological changes / severity (in words)” value (100 mg/kg PO QD (Table 1)) was “statistically significantly reducing cell morphological changes associated with disease”, the “body weight change” value (100 mg/kg po) was “significant improvement beginning on Day 4” and the “Percent Change in Body Weight, Mean” value (Day 1, 100 mg/kg PO QD) was 0.00%. The “Percent Survivability” value (Day 1, 100 mg/kg PO QD) was 100.000%, the “Fecal Consistency, Mean” value (Day 2, 100 mg/kg PO QD) was 1.47 and the “Occult Positivity, Mean” value (Day 2, 100 mg/kg PO QD) was 1.33. For the same compound, the “Percent Change in Body Weight, Mean” value (Day 2, 100 mg/kg PO QD) was −10.01%, the “Percent Survivability” value (Day 2, 100 mg/kg PO QD) was 100.000% and the “Occult Positivity, Mean” value (Day 3, 100 mg/kg PO QD) was 2.00. The “Percent Change in Body Weight, Mean” value (Day 3, 100 mg/kg PO QD) was −10.45%, the “Percent Survivability” value (Day 3, 100 mg/kg PO QD) was 100.000% and the “Percent Change in Body Weight, Mean” value (Day 4, 100 mg/kg PO QD) was −9.33%. The “Percent Survivability” value (Day 4, 100 mg/kg PO QD) was 93.000%, the “Fecal Consistency, Mean” value (Day 5, 100 mg/kg PO QD) was 1.38 and the “Occult Positivity, Mean” value (Day 5, 100 mg/kg PO QD) was 2.15. The “Percent Change in Body Weight, Mean” value (Day 5, 100 mg/kg PO QD) was −7.81%, the “Percent Survivability” value (Day 5, 100 mg/kg PO QD) was 86.670% and the “Fecal Consistency, Mean” value (Day 6, 100 mg/kg PO QD) was 0.83. For the same compound, the “Occult Positivity, Mean” value (Day 6, 100 mg/kg PO QD) was 1.67, the “Percent Change in Body Weight, Mean” value (Day 6, 100 mg/kg PO QD) was −5.87% and the “Percent Survivability” value (Day 6, 100 mg/kg PO QD) was 80.000%. The “occult positivity as compared to TNBS-vehicle (in words)” value (Day 7, 100 mg/kg) was “significant improvements”, the “Fecal Consistency, Mean” value (Day 7, 100 mg/kg PO QD) was 0.83 and the “Occult Positivity, Mean” value (Day 7, 100 mg/kg PO QD) was 1.17. The “Percent Change in Body Weight, Mean” value (Day 7, 100 mg/kg PO QD) was −6.09%, the “Percent Survivability” value (Day 7, 100 mg/kg PO QD) was 80.000% and the “Colon Length, Mean” value (100 mg/kg PO QD Days 1-7) was 9.08 cm. For the same compound, the “Colon Weight, Mean” value (100 mg/kg PO QD Days 1-7) was 0.2494 g, the “Histopathological severity score, Mean” value (100 mg/kg PO QD Days 1-7) was 1.08 and the “overall conclusion as compared to TNBS-vehicle (in words)” value (100 mg/kg) was “showed improvement in the colitis, loss of body weight and disease activity index”.
